# Source: patent publication US20040009939A1, “Methods of enhancing immune induction involving MDA-7” (Board of Regent, The University of Texas System, priority 2002, published 2004)
# Columns and labels:
# Type in all cases: cell-based, human
# [1] = system: A549 (wt p53), H1299 (null p53), and H322J (mutant p53) lung cancer cells; assay: Apoptosis by propidium iodide staining and FACS in lung cancer cells; settings: combination with 2-AP
# Protocol: (§1) Apoptotic cells by propidium iodide staining and FACS analysis were measured. Cells were harvested, pelleted by centrifugation and resuspended in phosphate-buffered saline containing 50 μg/ml propidium iodide, 0.1% Triton X-100, and 0.1% sodium citrate. Samples were stored at 4° C. for 16 hours and vortexed prior to FACS analysis (Becton-Dickenson FACScan, Mountain View, Calif.; FL-3 channel). Cellular viability was assessed with the XTT assay by growing cells in 96-well plates at 100 μL volume/well. After treatment with Ad-mda7 or control vectors, cells were incubated with the tetrazolium salt XTT according to the Roche protocol (Roche Diagnostics, Mannheim, Germany). Viability was assessed spectrophotometrically on an enzyme-linked immunosorbent assay (ELISA) plate reader.
# (§2) Apoptotic cells were measured by propidium iodide staining and FACS analysis. Cells were harvested, pelleted by centrifugation and resuspended in phosphate-buffered saline (PBS) containing 50 μg/ml propidium iodide, 0.1% Triton X-100, and 0.1% sodium citrate. Samples were stored at 4° C. for 16 hours and vortexed prior to FACS analysis (Becton-Dickenson FACScan, Mountain View, Calif.; FL-3 channel). Cellular viability was assessed with the XTT assay by growing cells in 96-well plates in 100 μl volume/well. […] Viability was assessed spectrophotometrically on an enzyme-linked immunosorbent assay (ELISA) plate reader.
# [2] = system: A549 and H1299 lung cancer cell lines; assay: XTT cellular viability assay; settings: 2-AP (10 mM) alone
# Protocol: as §1, §2
# PKR = assay: Immunoblot and confocal analysis of PKR, PKR substrates and caspases; settings: A549; immunoprecipitation; 10 mM 2-AP
# Protocol: Forty-eight hours after transfection, cell extracts were prepared for immunoblot assays as previously described (Pataer et al, 2000). The following antibodies were used: Bc1-2, Bak, Bax, PKR (K-17), eIF-2α, β-actin, p38 (A-12), phosphospecific p38 (D-8), stat1 (C-136), phosphospecific stat1 (A-2), stat3 (F-2), phosphospecific stat3 (B-7), anti-Tyk2 (C-20) and phosphospecific anti-Tyk (PY-99) (Santa Cruz Biotechnology, Santa Cruz, Calif.); Caspase 3, caspase-9, caspase-8 and Bid (PharMingen , San Diego, Calif.) and the phosphospecific PKR [pT451] and eIF-2a [pS51] (BioSource International, Camarillo, Calif.). The polyclonal and monoclonal antibodies to MDA-7 were obtained from Introgen Therapeutics, Inc. (Houston, Tex.).
# 4×10^5 cells/well were grown on chamber slides overnight and infected with Ad-mda7, Ad-Luc or PBS. 48 hrs later cells were washed with PBS and fixed overnight in 4% paraformaldehyde. Cells were then permeabilized for 20 min at 4° C. with 0.2% triton-X10O and blocked with 5% normal horse serum and 1% normal goat serum. Rabbit polyclonal anti-MDA7 and mouse monoclonal anti-PKR(B-10) were incubated overnight at 4° C. and developed with Rhodamine or FITC goat anti-rabbit IgG for 30-45 min at 37° C. Cells were then visualized under confocal microscopy.
# [3] = system: eIF-2α protein synthesis inhibition; assay: Measurement of cellular protein synthesis; settings: with 2-AP
# Protocol: Cells were treated with Ad-mda7 or Ad-Luc for 48 hrs. Where indicated, cells were treated with 1 mM 2-AP for 48 hrs. Measurement of protein synthesis was performed as previously described (14). After treatment, approximately 1×10^6 cell equivalents were incubated with L-[U-^14C] amino acid mixture (Amersham, Piscataway, N.J.) at 2 μCi/ml for 10 min at 37° C. The reaction was terminated by the addition of 20% (wt/vol) trichloroacetic acid and the radioactivity in the acid-precipitable fraction was measured in a scintillation counter.
# NF-κB = NF-κB activation (electromobility shift assay)
# Protocol: Studies were conducted to determine whether transgenic MDA-7 expression results in NF-κB activation, and to evaluate the role of NF-κB in protecting tumor cells from MDA-7 induced apoptosis.
# H1299 cells = assay: MDA-7 secretion and trypan blue cytotoxicity with glycosylation and secretion inhibitors; settings: for concentration that completely blocks secretion of MDA-7 protein: Ad-mda7 transduced H1299
# Protocol: Since glycosylated proteins generally acquire sugars during sorting through the ER and Golgi apparatus, the effect of glycosylation and secretion inhibitors on MDA-7 intracellular processing and subsequent secretion was evaluated. Tunicamycin inhibits the addition of sugars to proteins within the ER, while brefeldin A inhibits vesicle transport of proteins from the ER to the Golgi. Both disrupt the secretion of proteins. The cytotoxicity caused by Ad-mda7 in the presence of these glycosylation and secretion inhibitors was evaluated. Tunicamycin and brefeldin A levels were titrated until inhibition of secretion of MDA-7 protein could be detected. As shown in FIGS. 26A and 26B, treatment of H1299 cells with 2 μg/ml tunicamycin completely blocks secretion of MDA-7 protein, whereas less than 1 μg/ml of brefeldin A is required for this effect. Note that blocking secretion using either drug results in substantial intracellular accumulation of MDA-7 protein. […] The enhanced killing may be due to the tunicamycin sensitizing cells to apoptotic death. […] Therefore, secreted MDA-7 protein is unable to induce killing in cancer cells and is not required for Ad-mda7 mediated apoptosis and eventual killing of cancer cells (FIG. 32B).
# H1299 and A549 cells = assay: Mitochondrial membrane potential (TMRE) and apoptosis; settings: Staurosporine 1 μM
# Protocol: Apoptotic cells were measured by propidium iodide staining and FACS analysis. Cells were harvested, pelleted by centrifugation and resuspended in phosphate-buffered saline (PBS) containing 50 μg/ml propidium iodide, 0.1% Triton X-100, and 0.1% sodium citrate. Samples were stored at 4° C. for 16 hours and vortexed prior to FACS analysis (Becton-Dickenson FACScan, Mountain View, Calif.; FL-3 channel). Cellular viability was assessed with the XTT assay by growing cells in 96-well plates in 100 μl volume/well. On day one, cells were transduced with Ad-mda-7, Ad-p53 or control vectors. On day two, the cells were incubated with the tetrazolium salt XTT for 4 to 24 hours according to the Roche protocol (Roche Diagnostics, Mannheim, Germany). Viability was assessed spectrophotometrically on an enzyme-linked immunosorbent assay (ELISA) plate reader.
# The potential-sensitive fluorochrome tetramethylrhodamine, ethylester, perchlorate (TMRE) (Molecular Probes, Eugene, Oreg.) was used to measure ΔΨm. Cells were incubated with 25 nM TMRE for 30 minutes at 37° C. in the dark, washed in PBS, and analyzed by FACS on the FL-2 channel (FACScan: Becton Dickinson, Mountain View, Calif.).
# HUVEC and HMVEC cells = assay: Endothelial cell differentiation (tube formation) assay; settings: HUVEC and HMVEC; 24 h
# Protocol: Endothelial cell differentiation (tube formation) assays were done using an in vitro angiogenesis assay kit (Chemicon, Temecula, Calif.). Briefly, HUVEC and HMVEC cells were grown to 80% confluency, collected, resuspended in growth medium and plated at a concentration of 2×10^4 cells/well in a 96-well plate coated with matrigel (Chemicon, Temecula, Calif.). To the wells, varying concentrations of MDA-7 protein were added and incubated for 24 h at 37° C. Wells that were not treated with MDA-7 protein served as a negative control. The ability of sMDA-7 to inhibit tube formation was determined and quantitated by counting the number of tubes under bright field microscopy. All samples were tested in duplicate. For comparative studies using MDA-7 and endostatin (Calbiochem), cells were plated as described above and exposed to varying concentration of the proteins. […] All other experimental procedures were the same as described above.
compound,measurement,setting,value
"Nc1ncc2[nH]cnc2n1.O=[N+]([O-])O [2-AP, 2-Aminopurine Nitrate Salt]",apoptosis induction and cell killing in cells treated with Ad-mda7,[1],blocked apoptosis induction and cell killing in a dose dependent manner
same,cell viability,[2],no effect on cell viability
same,PKR and eIF-2α phosphorylation in Ad-mda7 treated cells,PKR,attenuated PKR activation with inhibition of both PKR and eIF-2α phosphorylation
same,protein synthesis in Ad-mda7 treated cells,[3],reversal of eIF-2α protein synthesis inhibition
CC1=C(CC(=O)O)c2cc(F)ccc2/C1=C\c1ccc([S+](C)[O-])cc1 (stereo not drawn) [Sulindac],TNF-mediated NF-κB activation,NF-κB,inhibited TNF-mediated NF-κB activation in a dose-dependent manner
same,activation of the NF-κB pathway,NF-κB,inhibited the activation of the NF-κB pathway
C[C@H]1CCC/C=C/[C@@H]2C[C@H](O)C[C@H]2[C@H](O)/C=C/C(=O)O1 [brefeldin A],concentration that completely blocks secretion of MDA-7 protein,H1299 cells,less than 1 μg/ml
CN[C@@H]1C[C@H]2O[C@@](C)([C@@H]1OC)n1c3ccccc3c3c4c(c5c6ccccc6n2c5c31)C(=O)NC4 [staurosporine],MMP changes and apoptosis,H1299 and A549 cells; A549 cells,induces MMP changes and apoptosis
same,MMP changes and apoptosis,H1299 and A549 cells; H1299 cells,able to induce MMP changes and the induction of apoptosis
endostatin [reference compound],inhibition of endothelial tube formation,HUVEC and HMVEC cells,the inhibitory effect by endostatin was not observed
tunicamycin,"cell death, inhibitor alone","H1299 cells; 2 μg/ml tunicamycin, trypan blue",did not induce death
same,concentration that completely blocks secretion of MDA-7 protein,H1299 cells,2 µg/mL
